This is an account of results in patent US20090239846A1, “Novel Compounds” (Glaxo Group Limited, priority 2005, published 2009).

Counter-ions that a name gives are not always drawn. Like-named read-outs stand apart in the source and are kept apart here. Where only a bound is given, the exact number is not on record here.

For assay [1], the system named is IL-8 production by human neutrophils. Put plainly: TNF-stimulated IL-8 production from human neutrophils. The assay is classed as cell-based. The conditions noted are these: Neutrophil.
Experimental: TNF-Stimulated IL-8 Production from Human Neutrophils The effect of test compounds on TNF-stimulated IL8 production by human neutrophils is measured as follows. Neutrophils are prepared from blood obtained from consenting donors, using standard methods. Blood is collected in heparinized syringes and layered over histopaque (30 ml/20 ml). Following centrifugation, the red cell pellet is resuspended in PBS and purified over a dextran gradient. Red blood cells are lysed with water for 40 sec, remaining granulocytes collected by centrifugation and resuspended at 1.5×10̂6 cells/ml. Cells are added (0.5-1 ml) to 48 well plates already containing compound at 1000×final concentration in neat DMSO or 10% DMSO in RPMI1640 with 10% FBS. TNF (final concentration 100 ng/ml) is used as the stimulus. Cells incubated for approximately 20 hrs at 37° C., 5% CO2. Levels of IL-8 in the cell free supernatant are determined by sandwich ELISA, and inhibition relative to a control with DMPO but no compound is calculated.
The target in the next assay is T1, Recombinant human p38α (Homo sapiens, UniProt Q16539).
T1 construct: GST; made in house
Nature of the assay: Fluorescence anisotropy kinase binding assay (standard or low volume). The conditions noted are these: 12 nM p38α, 5 nM fluorescent ligand. An excerpt: The concentration of kinase enzyme should preferably be >2×Kf. The concentration of fluorescent ligand required will depend on the instrumentation used, and the fluorescent and physicochemical properties. The concentration used must be lower than the concentration of kinase enzyme, and preferably less than half the kinase enzyme concentration.
The fluorescent ligand is the following compound:
[drawing 329] • which is derived from 5-[2-(4-aminomethylphenyl)-5-pyridin-4-yl-1H-imidazol-4-yl]-2-chlorophenol and rhodamine green. Recombinant human p38α was expressed as a GST-tagged protein. To activate this protein, 3.5 μM unactivated p38α was incubated in 50 mM Tris-HCl pH 7.5, 0.1 mM EGTA, 0.1% 2-mercaptoethanol, 0.1 mM sodium vanadate, 10 mM MgAc, 0.1 mM ATP with 200 nM MBP-MKK6 DD at 30 degrees for 30 mins. Following activation p38α was re-purified and the activity assessed using a standard filter-binding assay. Protocol: All components are dissolved in buffer of composition 62.5 mM HEPES, pH 7.5, 1.25 mM CHAPS, 1 mM DTT, 12.5 mM MgCl2 with final concentrations of 12 nM p38α and 5 nM fluorescent ligand. 30 μl of this reaction mixture is added to wells containing 1 μl of various concentrations of test compound (0.28 nM-16.6 μM final) or DMSO vehicle (3% final) in NUNC 384 well black microtitre plate and equilibrated for 30-60 mins at room temperature. Fluorescence anisotropy is read in Molecular Devices Acquest (excitation 485 nm/emission 535 nm). Definitions: Ki=dissociation constant for inhibitor binding • Kf=dissociation constant for fluorescent ligand binding
The concentration of kinase enzyme should preferably be 2×Kf. The concentration of fluorescent ligand required will depend on the instrumentation used, and the fluorescent and physicochemical properties. The concentration used must be lower than the concentration of kinase enzyme, and preferably less than half the kinase enzyme concentration. The fluorescent ligand is the following compound:
which is derived from 5-[2-(4-aminomethylphenyl)-5-pyridin-4-yl-1H-imidazol-4-yl]-2-chlorophenol and rhodamine green. Recombinant human p38α was expressed as a GST-tagged protein. To activate this protein, 3.5 μM unactivated p38α was incubated in 50 mM Tris-HCl pH 7.5, 0.1 mM EGTA, 0.1% 2-mercaptoethanol, 0.1 mM sodium vanadate, 10 mM MgAc, 0.1 mM ATP with 200 nM MBP-MKK6 DD at 30 degrees for 30 mins. Following activation p38α was re-purified and the activity assessed using a standard filter-binding assay. Protocol: All components are dissolved in buffer of composition 62.5 mM HEPES, pH 7.5, 1.25 mM CHAPS, 1 mM DTT, 12.5 mM MgCl2 with final concentrations of 12 nM p38α and 5 nM fluorescent ligand. […] of this reaction mixture is added to wells containing 0.1 μl of various concentrations of test compound (0.02 nM-25 μM final) or DMSO vehicle (1.7% final) in Greiner low volume 384 well black microtitre plate and equilibrated for 30-60 mins at room temperature. Fluorescence anisotropy is read in Molecular Devices Acquest (excitation 485 nm/emission 535 nm). Definitions: Ki dissociation constant for inhibitor binding • Kf=dissociation constant for fluorescent ligand binding It is noted that there are two assay formats shown above for the Fluorescence anisotropy kinase binding assay. The only difference between these two assays is the volume used and the plate type. […] The results described herein may have been performed in either assay format and are not differentiated as to which.
Background: Fluorescence polarisation rises when a labelled molecule tumbles more slowly, as on binding a larger partner.

Setting [2] is: bound, not more than 50% inhibition at 100 nM, read-out: IC50.
[3] abbreviates: ends given as 'less than' / 'greater than', read-out: IC50, broad range of data upon multiple runs.

T1 sequence (Q16539 whole entry): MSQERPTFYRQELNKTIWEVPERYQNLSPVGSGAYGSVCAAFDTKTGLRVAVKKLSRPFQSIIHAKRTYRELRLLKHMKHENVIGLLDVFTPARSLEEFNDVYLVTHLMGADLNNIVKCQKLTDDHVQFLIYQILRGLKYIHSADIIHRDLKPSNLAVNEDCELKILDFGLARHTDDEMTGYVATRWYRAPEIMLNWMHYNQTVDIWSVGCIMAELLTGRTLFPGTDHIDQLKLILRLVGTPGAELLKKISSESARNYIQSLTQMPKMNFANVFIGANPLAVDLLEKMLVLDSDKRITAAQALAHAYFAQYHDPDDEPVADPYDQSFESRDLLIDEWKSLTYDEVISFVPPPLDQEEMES

In the case of `Cc1ccc(C(=O)NCC2CC2)cc1-c1nc(N(C)CCN)nc2c1CNC(=O)N2c1c(F)cccc1F` [4(c), 3-[2-[(2-Aminoethyl)(methyl)amino]-8-(2,6-difluorophenyl)-7-oxo-5,6,7,8-tetrahydropyrimido[4,5-d]pyrimidin-4-yl]-N-(cyclopropylmethyl)-4-methylbenzamide], the IC50 in assay [1] (setting [2]) is over 100 nM. For the same compound, the “active in the assay (pIC50, p38α binding)” value (“active in the assay” for short) on Recombinant human p38α was “active”.
As for `Cc1ccc(C(=O)NCC2CC2)cc1-c1nc(NC2CCNCC2)nc2c1CNC(=O)N2c1c(F)cccc1F` [6(b), N-(Cyclopropylmethyl)-3-[8-(2,6-difluorophenyl)-7-oxo-2-(4-piperidinylamino)-5,6,7,8-tetrahydropyrimido[4,5-d]pyrimidin-4-yl]-4-methylbenzamide], the half-inhibitory concentration (IC50) in assay [1] (setting [2]) is over 100 nM. In addition, the “active in the assay” value at Recombinant human p38α is “active”.
`CSc1nc(-c2cc(C(=O)NCc3ccccc3)ccc2C)c2c(n1)N(c1c(F)cccc1F)C(=O)NC2` [15(a), 3-[8-(2,6-Difluorophenyl)-2-(methylthio)-7-oxo-5,6,7,8-tetrahydropyrimido[4,5-d]pyrimidin-4-yl]-4-methyl-N-(phenylmethyl)benzamide]: the half-inhibitory concentration (IC50) in assay [1] (setting [3]) fell in the range of 40 to 100 nM. In addition, on Recombinant human p38α, the “active in the assay” value was “active”.
`Cc1ccc(C(=O)NCc2ccccc2)cc1-c1nc(S(C)(=O)=O)nc2c1CNC(=O)N2c1c(F)cccc1F` [15(b), 3-[8-(2,6-Difluorophenyl)-2-(methylsulfonyl)-7-oxo-5,6,7,8-tetrahydropyrimido[4,5-d]pyrimidin-4-yl]-4-methyl-N-(phenylmethyl)benzamide]: the IC50 in assay [1] (setting [2]) was over 100 nM. For the same compound, the “active in the assay” value on Recombinant human p38α is “active”.
For `CCCNC(=O)c1ccc(C)c(-c2nc(NCCCNCC)nc3c2CNC(=O)N3c2c(F)cccc2F)c1` [230(b), 3-(8-(2,6-difluorophenyl)-2-{[3-(ethylamino)propyl]amino}-7-oxo-5,6,7,8-tetrahydropyrimido[4,5-d]pyrimidin-4-yl)-4-methyl-N-propylbenzamide trifluoroacetate], the IC50 in assay [1] (setting [2]) was over 100 nM.
Same read-out and setting: for `Cc1ccc(C(=O)NC(C)C)cc1-c1nc(NCCCNC(C)C)nc2c1CNC(=O)N2c1c(F)cccc1F` [Example 49, 3-[8-(2,6-difluorophenyl)-2-({3-[(1-methylethyl)amino]propyl}amino)-7-oxo-5,6,7,8-tetrahydropyrimido[4,5-d]pyrimidin-4-yl]-4-methyl-N-(1-methylethyl)benzamide] the value was over 100 nM; for `Cc1ccc(C(=O)NC(C)C)cc1-c1nc(NCCCNC(C)(C)C)nc2c1CNC(=O)N2c1c(F)cccc1F` [Example 50, 3-[8-(2,6-difluorophenyl)-2-({3-[(1,1-dimethylethyl)amino]propyl}amino)-7-oxo-5,6,7,8-tetrahydropyrimido[4,5-d]pyrimidin-4-yl]-4-methyl-N-(1-methylethyl)benzamide], over 100 nM.
Same read-out and setting: for `CCCNC(=O)c1ccc(C)c(-c2nc(NCCNC(C)C)nc3c2CNC(=O)N3c2c(F)cccc2F)c1` [Example 62, 3-[8-(2,6-difluorophenyl)-2-({2-[(1-methylethyl)amino]ethyl}amino)-7-oxo-5,6,7,8-tetrahydropyrimido[4,5-d]pyrimidin-4-yl]-4-methyl-N-propylbenzamide] the value was over 100 nM; for `CCCNC(=O)c1ccc(C)c(-c2nc(NCCCNC(C)(C)C)nc3c2CNC(=O)N3c2c(F)cccc2F)c1` [Example 65, 3-[8-(2,6-difluorophenyl)-2-({3-[(1,1-dimethylethyl)amino]propyl}amino)-7-oxo-5,6,7,8-tetrahydropyrimido[4,5-d]pyrimidin-4-yl]-4-methyl-N-propylbenzamide], over 100 nM.
On to `Cc1ccc(C(=O)NC(C)C)cc1-c1nc(N2CCC(N3CCOCC3)CC2)nc2c1CNC(=O)N2c1c(F)cccc1F` [Example 71, 3-{8-(2,6-difluorophenyl)-2-[4-(4-morpholinyl)-1-piperidinyl]-7-oxo-5,6,7,8-tetrahydropyrimido[4,5-d]pyrimidin-4-yl}-4-methyl-N-(1-methylethyl)benzamide], for which the IC50 in assay [1] (bound, screened at a different top concentration, read-out: IC50) is over 1 nM.
`CN(C)CCNc1nc(-c2cccc(C(=O)N(C)C)c2)c2c(n1)N(c1c(F)cccc1F)C(=O)NC2` [Example 90, 3-(8-(2,6-difluorophenyl)-2-{[2-(dimethylamino)ethyl]amino}-7-oxo-5,6,7,8-tetrahydropyrimido[4,5-d]pyrimidin-4-yl)-N,N-dimethylbenzamide]: in assay [1] (setting [2]), the IC50 was over 100 nM.
Same read-out and setting: for `CNC(=O)c1ccc(-c2nc(NCCN(C)C)nc3c2CNC(=O)N3c2c(F)cccc2F)c(C)c1` [Example 109, 4-(8-(2,6-difluorophenyl)-2-{[2-(dimethylamino)ethyl]amino}-7-oxo-5,6,7,8-tetrahydropyrimido[4,5-d]pyrimidin-4-yl)-N,3-dimethylbenzamide trifluoroacetate] the value was over 100 nM; for `Cc1c(F)cc(C(=O)N(C)C)cc1-c1nc(NCCN(C)C)nc2c1CNC(=O)N2c1c(F)cccc1F` [Example 113, 3-(8-(2,6-difluorophenyl)-2-{[2-(dimethylamino)ethyl]amino}-7-oxo-5,6,7,8-tetrahydropyrimido[4,5-d]pyrimidin-4-yl)-5-fluoro-N,N,4-trimethylbenzamide], over 100 nM.
Take `Cc1c(F)cc(C(=O)Nc2ccc(F)cc2)cc1-c1nc(NCCN(C)C)nc2c1CNC(=O)N2c1c(F)cccc1F` [Example 115, 3-(8-(2,6-difluorophenyl)-2-{[2-(dimethylamino)ethyl]amino}-7-oxo-5,6,7,8-tetrahydropyrimido[4,5-d]pyrimidin-4-yl)-5-fluoro-N-(4-fluorophenyl)-4-methylbenzamide]: in assay [1] (setting [3]), the IC50 was in the range of 1 to 100 nM.
On to `Cc1ccc(C(=O)NC(C)C)cc1-c1nc(N(C)CCCN(C)CCCN(C)C)nc2c1CNC(=O)N2c1c(F)cccc1F` [Example 116, 3-{8-(2,6-difluorophenyl)-2-[{3-[[3-(dimethylamino)propyl]-(methyl)amino]propyl}(methyl)amino]-7-oxo-5,6,7,8-tetrahydropyrimido[4,5-d]pyrimidin-4-yl}-4-methyl-N-(1-methylethyl)benzamide], for which the concentration for half-maximal inhibition (IC50) in assay [1] (setting [2]) was over 100 nM.
`Cc1ccc(C(=O)NCC(C)(C)C)cc1-c1nc(NCCN(C)C)nc2c1CNC(=O)N2c1c(F)cccc1F` [Example 125, 3-(8-(2,6-difluorophenyl)-2-{[2-(dimethylamino)ethyl]amino}-7-oxo-5,6,7,8-tetrahydropyrimido[4,5-d]pyrimidin-4-yl)-N-(2,2-dimethylpropyl)-4-methylbenzamide]: the IC50 in assay [1] (setting [2]) is over 100 nM.
Still for that read-out and setting: for `CCc1ccc(C(N)=O)cc1-c1nc(NCCN(C)C)nc2c1CNC(=O)N2c1c(F)cccc1F` [Example 146, 3-(8-(2,6-difluorophenyl)-2-{[2-(dimethylamino)ethyl]amino}-7-oxo-5,6,7,8-tetrahydropyrimido[4,5-d]pyrimidin-4-yl)-4-ethylbenzamide] the value was over 100 nM; for `Cc1ccc(C(=O)NC(C)C)cc1-c1nc(NCCN2CCN(Cc3ccccc3)CC2)nc2c1CNC(=O)N2c1c(F)cccc1F` [Example 197, 3-[8-(2,6-difluorophenyl)-7-oxo-2-({2-[4-(phenylmethyl)-1-piperazinyl]ethyl}amino)-5,6,7,8-tetrahydropyrimido[4,5-d]pyrimidin-4-yl]-4-methyl-N-(1-methylethyl)benzamide trifluoroacetate], over 100 nM.
The same measure, in the same setting: under `CCCNC(=O)c1ccc(C)c(-c2nc(NCCC(=O)O)nc3c2CNC(=O)N3c2c(F)cccc2F)c1` [Example 229, N-(8-(2,6-difluorophenyl)-4-{2-methyl-5-[(propylamino)carbonyl]phenyl}-7-oxo-5,6,7,8-tetrahydropyrimido[4,5-d]pyrimidin-2-yl)-β-alanine] stands over 100 nM.

The term IC50 denotes the concentration at which inhibition is half-maximal.
